Assays:
[1] = test system: Reconstructed Human Epidermis (RHE); test: Reconstructed Human Epidermis (RHE) treated topically with ceramide in base emulsion, LC-MS/MS proteomics; type: cell-based; settings: application on keratinocytes
Experimental: Material and methods: Reconstructed Human Epidermis (RHE) cell culture is used, as this system mimics the in vivo 3D structure of epidermal tissue as well as the conditions and processes that occur in normal epidermis. RHE are cultured using the medium provided by the manufacturer until analysis. RHE are maintained in survival for 24 hours, before RHE are topically treated with the respective ceramide in a base emulsion for 24 h. 3 RHE are treated with base emulsion alone and 3 more remained untreated as a control batch (Ctrl). RHE are incubated under classical cell culture conditions (37° C., 5% CO2).
Sample preparation and LC-MS/MS analysis: Protein is extracted using the Pierce Total Protein Extraction Kit (Thermo Fisher) according to manufacturer's recommendations. The protein is mixed with Laemmli buffer and heated to 37° C. for 30 min. Protein concentration is determined by the BCA method and standardized for all samples. The samples are separated by SDS-PAGE and digested with trypsin overnight. The peptides generated are acidified and separated. The mass spectra are queried using Proteome Discoverer (version 2.5). The resulting MS/MS data are queried against the Homo sapiens proteome UP000005640 (20371 reviewed entries). Results are filtered based on unique peptides >2, and global peptide scores. Analyses are performed using Proteome Discoverer 2.5 to check for overall sample quality.
Bioinformatics and statistical analysis: Proteomic analysis returned a mean total of 34961 high-quality peptides corresponding to a mean 2422 identifiable and quantifiable RHE proteins among conditions. A summary of proteins differentially expressed within conditions is provided in Annex 3. Proteins with a p-value 0.05 in at least one of the concentrations tested for a lipid are considered significant and used for pairwise comparisons. Relevant proteins are classified by their biological processes and associated pathways using the publicly available gene ontology (GO) database provided by the Gene Ontology Consortium and Reactome. Interactome analysis was performed using Cytoscape combined with STRING.

Collagen IV = Collagen IV immunostaining along the dermal-epidermal junction of living human skin explants; type: cell-based; settings: 0.1% CNS18 in basic emulsion, topical, 8 days of treatment
Experimental: (§1) Human skin explants of an average diameter of 12 mm (±1 mm) were prepared on an abdoplasty coming from a person with a phototype II according to Fitzpatrick skin colour classification. The explants were kept in survival in BEM culture medium (BIO-EC's Explants Medium) at 37° C. in a humid, 5%—CO2 atmosphere.
(§2) The tested products E and P were applied topically at a rate of […] per 1 cm^2 explant (≈2 mg/cm^2), and spread using a small spatula on day 0 (D0), D2, D4 and D6. […] The culture medium was half renewed (l ml per well) on D2, D4 and D6.
(§3) On D0, the 3 explants from the batch TO were collected and cut into two parts. Half was fixed in buffered formalin solution, […] was frozen at −80° C. On D4 and D8, 3 explants from the concerned batches were collected and treated in the same way as in D0.
After fixation for 24 hours in buffered formalin, the samples were dehydrated and impregnated in paraffin using a Leica PEARL dehydration automat. The samples were embedded using a Leica EG 1160 embedding station. […]
Collagen IV immunostaining was performed on frozen skin sections with a monoclonal anti-collagen IV antibody (Dako, ref M0785, clone CIV 22) diluted at 1:25 in PBS-BSA 0.3%-Tween 20 at 0.05% and incubated for 1 h at room temperature. […] The immunostaining was assessed by microscopical observation.

Laminin 5 = test: Laminin-5 immunostaining along the dermal-epidermal junction of living human skin explants; type: cell-based; settings: 0.1% CNS18 in basic emulsion, topical, 4 days of treatment
Experimental: as §1, §2, §3
After fixation for 24 hours in buffered formalin, the samples were dehydrated and impregnated in paraffin using a Leica PEARL dehydration automat. The samples were embedded using a Leica EG 1160 embedding station. 5-μm-thick sections were made using a Leica RM 2125 Minot-type microtome, and the sections were mounted on Superfrost® histological glass slides. The frozen samples were cut into 7-μm-thick sections using a Leica CM 3050 cryostat. Sections were then mounted on Superfrost® plus silanized glass slides. […]
The immunostaining was assessed by microscopical observation.

IL-1α = IL-1α ELISA quantification in BEM culture medium of skin explants; type: cell-based, human; settings: 0.05% GlcCNS18 in basic emulsion, topical
Experimental: Human skin explants of an average diameter of 11 mm (+1 mm) were prepared on an abdoplasty coming from a person with a II phototype according to Fitzpatrick skin colour classification. The explants were kept in survival in BEM culture medium (BIO-EC's Explants Medium) at 37° C. in a humid, 5%—CO2 atmosphere.
The tested products E and P were applied topically at a rate of 2 μL per 1 cm^2 explant (2 mg/cm^2), and spread using a small spatula on day 0 (D0), D1, D2 and D5. […] The culture medium was half renewed (1 ml per well) on D1, D2 and completely renewed (2 mL per well) on D5.
On D0, the 3 explants from the batch TO were collected and cut into two parts. One part was fixed in buffered formalin solution, and the other part was frozen at −80° C. for histological analysis. On D6, 4 explants from the concerned batches were collected and treated in the same way than in D0. The culture medium BEM of all batches was collected on D6 (2 mL per explant) and stored at −20° C. for dosages.
IL-1α dosage was performed with human IL-1α ELISA kit (Cayman, ref 583301). According to provider's guidelines, the culture medium and the IL-1α standard were incubated with acetylcholinesterase (AChE) Fab′ conjugate binding IL-1α in wells which contain coated IL-1α antibody, overnight at 4° C. […] Absorbance at 412 nm was measured using the M200Pro Tecan microplate reader and Magellan7 software. […]

[2] = 0.01%, 0.03%, 0.15% ceramide in vehicle vs vehicle, 24 h

For `CCCCCCCCCCCCCCCCCC(=O)NC(CO)C(O)CCCCCCCCCCCCCCC` (centres unmarked) [Cer NG], the “regulation of ATP synthase subunit delta (mitochondrial)” value [1] was “upregulation”, the “regulation of ATP synthase subunit g (mitochondrial)” value (from here on “regulation of ATP synthase subunit g”) [1] was “upregulation” and the “regulation of NAD-dependent protein deacetylase sirtuin-2 (sirtuin-2)” value (“regulation … (sirtuin-2)” for short) [1] was “up-regulation”. The “regulation of cytochrome c oxidase subunit 6C” value [1] was “upregulation”, the “regulation of phosphomevalonate kinase” value [1] was “upregulation” and the “regulation of small proline-rich protein 2D” value [1] was “up-regulation”. The “regulation of ECM1 (Extracellular Matrix Protein 1)” value (shortened to “regulation of ECM1”) [1, 2] was “up-regulation” and the “regulation of Integrin alpha-3” value [1, 2] was “up-regulation”.

`CCCCCCCCCCCCCCCCCC(=O)NC(CO)C(O)C(O)CCCCCCCCCCCCCC` (centres unmarked) [Cer NP] was tested, and the “regulation of Keratin-17” value [1] was “up-regulation”, the “regulation of ECM1” value [1, 2] was “up-regulation” and the “regulation of Syndecan-1” value [1, 2] was “up-regulation”.

With `CCCCCCCCCCCCCC=CC(O)C(CO)NC(=O)CCCCCCCCCCCCCCCCC` (centres unmarked) [Cer NS] the “regulation of Kallikrein-5” value [1] was “up-regulation”, the “regulation of LC3A (microtubule-associated proteins 1A/1B light chain 3A)” value [1] was “up-regulation” and the “regulation … (sirtuin-2)” value [1] was “up-regulation”. The “regulation of cornifin-B” value [1] was “up-regulation”, the “regulation of protein S100-A2” value [1] was “down-regulation” and the “regulation of protein S100-A9” value [1] was “down-regulation”. The “regulation of ECM1” value [1, 2] was “up-regulation”, the “regulation of Laminin-5” value [1, 2] was “up-regulation” and the “regulation of Plakophilin-2” value [1, 2] was “up-regulation”. For the same molecule, the “regulation of Syndecan-1” value [1, 2] was “up-regulation”, the “increase in expression of collagen IV” value (Collagen IV) was 41% and the “increase in expression of laminin-5” value (Laminin 5) was 26%.

In the case of `CCCCCCCCCCCCCC=CC(O)C(COC1OC(CO)C(O)C(O)C1O)NC(=O)CCCCCCCCCCCCCCCCC` (centres unmarked) [GlcCer], the “regulation of ATP synthase subunit delta (mitochondrial)” value [1] is reported as “up-regulation”, the “regulation of ATP synthase subunit g” value [1] is reported as “up-regulation” and the “regulation of ATP-dependent zinc metalloprotease YME1L1” value [1] is reported as “up-regulation”. The “regulation of LC3A (microtubule-associated proteins 1A/1B light chain 3A)” value [1] was “up-regulation”, the “regulation of NAD-dependent malic enzyme (mitochondrial)” value [1] was “up-regulation” and the “regulation of NADH dehydrogenase [ubiquinone]1 alpha subcomplex subunit 8” value [1] was “up-regulation”. The “regulation of NADH dehydrogenase [ubiquinone] iron-sulfur protein 2 (mitochondrial)” value [1] was “up-regulation”, the “regulation of cytochrome c oxidase subunit 6C” value [1] was “up-regulation” and the “regulation of interleukin-1-alpha (IL-1α)” value [1] was “down-regulation”. The “regulation of nuclear factor NF-kappa-B p105 subunit” value [1] was “down-regulation”, the “regulation of phosphomevalonate kinase” value [1] was “up-regulation” and the “regulation of protein S100-A2” value [1] was “down-regulation”. The “regulation of protein S100-A9” value [1] was “down-regulation”, the IL-1α release (IL-1α; day 6) was “increased” and the IL-1α release (IL-1α; day 6, listed as GlcCNS) was “significant increase”.

In the case of `CCCCCCCCCCCCCC=CC(O)C(COC1OC(CO)C(OC2OC(CO)C(O)C(O)C2O)C(O)C1O)NC(=O)CCCCCCCCCCCCCCCCC` (centres unmarked) [LacCer], the “regulation of ATP synthase subunit delta (mitochondrial)” value [1] is reported as “upregulation”, the “regulation of ATP synthase subunit g” value [1] is reported as “upregulation” and the “regulation of ATP-dependent zinc metalloprotease YME1L1” value [1] is reported as “upregulation”. For the same molecule, the “regulation of Glutathione S-transferase Mu 2” value [1] was “up-regulation”, the “regulation of LC3B (microtubule-associated proteins 1A/1B light chain 3B)” value [1] was “up-regulation” and the “regulation of NAD-dependent malic enzyme (mitochondrial)” value [1] was “upregulation”. For the same molecule, the “regulation … (sirtuin-2)” value [1] was “up-regulation”, the regulation of cystathione-gamma-lyase [1] was “up-regulation” and the “regulation of cytochrome b-cl complex subunit 9” value [1] was “upregulation”. The “regulation of cytochrome c oxidase subunit 2” value [1] was “upregulation”, the “regulation of cytochrome c oxidase subunit 6C” value [1] was “upregulation” and the “regulation of cytochrome c oxidase subunit NDUFA4” value [1] was “upregulation”. For the same molecule, the “regulation of phosphomevalonate kinase” value [1] was “upregulation”, the “regulation of ECM1” value [1, 2] was “up-regulation” and the “regulation of Syndecan-1” value [1, 2] was “up-regulation”.

— patent US20260041622A1, “Reduction of Signs of Skin Aging” (CarboCode S.A., priority 2022, published 2026)
